Reference: US20160214956A1, “NOVEL SOLUBLE GUANYLATE CYCLASE ACTIVATORS AND THEIR USE” (GLAXOSMITHKLINE INTELLECTUAL PROPERTY DEVELOPMENT LIMITED, priority 2013, published 2016)

Columns and labels:
[1] = molecular target: T1, soluble guanylate cyclase (sGC) (Rattus norvegicus, UniProt P20595); test: Cellular assay, VASP phosphorylation in rat aortic smooth muscle cells with ODQ; type: cell-based; settings: phospho-VASP signal, primary rat aortic smooth muscle cells, 10 μM ODQ, 30 min incubation; 50% vs. Bmax; read-out: Cell assay pEC50 (converted)
T1 construct: endogenous in cells; host or cells: primary rat aortic smooth muscle cells
T1 sequence (P20595 1-619): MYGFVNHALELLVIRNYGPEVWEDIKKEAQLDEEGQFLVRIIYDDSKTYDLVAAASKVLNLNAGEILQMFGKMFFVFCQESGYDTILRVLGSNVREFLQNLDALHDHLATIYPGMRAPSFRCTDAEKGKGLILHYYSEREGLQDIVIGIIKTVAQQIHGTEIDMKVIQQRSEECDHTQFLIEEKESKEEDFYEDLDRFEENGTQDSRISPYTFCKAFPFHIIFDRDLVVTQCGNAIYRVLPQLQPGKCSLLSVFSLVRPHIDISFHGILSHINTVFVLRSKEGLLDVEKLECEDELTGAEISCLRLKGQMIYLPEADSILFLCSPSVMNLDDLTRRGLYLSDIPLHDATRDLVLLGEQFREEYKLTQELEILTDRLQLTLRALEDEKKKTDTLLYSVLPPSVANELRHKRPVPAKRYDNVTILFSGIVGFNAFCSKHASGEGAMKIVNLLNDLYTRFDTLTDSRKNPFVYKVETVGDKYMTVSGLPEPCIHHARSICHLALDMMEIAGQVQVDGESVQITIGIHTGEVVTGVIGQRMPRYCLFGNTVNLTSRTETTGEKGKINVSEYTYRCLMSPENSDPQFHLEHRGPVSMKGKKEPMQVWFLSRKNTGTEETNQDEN
T1 sequence (P19686 1-690 partner): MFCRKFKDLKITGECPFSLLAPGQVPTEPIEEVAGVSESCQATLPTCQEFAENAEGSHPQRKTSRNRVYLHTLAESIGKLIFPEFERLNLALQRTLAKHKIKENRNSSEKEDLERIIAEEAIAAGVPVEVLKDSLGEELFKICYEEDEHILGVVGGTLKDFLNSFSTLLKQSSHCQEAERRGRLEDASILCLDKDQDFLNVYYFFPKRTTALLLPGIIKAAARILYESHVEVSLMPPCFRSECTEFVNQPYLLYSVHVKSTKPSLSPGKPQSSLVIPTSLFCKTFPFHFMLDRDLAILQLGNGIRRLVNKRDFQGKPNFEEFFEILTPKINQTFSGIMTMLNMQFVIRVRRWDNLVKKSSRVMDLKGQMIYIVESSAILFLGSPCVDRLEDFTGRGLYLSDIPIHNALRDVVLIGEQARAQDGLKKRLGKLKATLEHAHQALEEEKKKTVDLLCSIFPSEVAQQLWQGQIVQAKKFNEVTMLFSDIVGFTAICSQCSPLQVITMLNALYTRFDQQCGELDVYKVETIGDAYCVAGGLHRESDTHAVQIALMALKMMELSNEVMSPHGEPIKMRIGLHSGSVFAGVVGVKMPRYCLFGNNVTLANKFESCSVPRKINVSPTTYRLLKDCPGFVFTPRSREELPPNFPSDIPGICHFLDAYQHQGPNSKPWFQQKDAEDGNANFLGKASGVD
Description: The activity of soluble guanylate cyclase (sGC) was tested in an assay based on measuring phosphorylation of the protein kinase G (PKG) substrate vasodilator-stimulated phosphoprotein (VASP) in rat aortic smooth muscle cells. […] Dimethylsulfoxide (DMSO) vehicle and varying concentrations of the compound to be tested were then added. Following a 30 min incubation at 37° C., media was aspirated and the cells were rinsed with phosphate-buffered saline (PBS) and fixed with 4% formaldehyde in PBS by incubating at room temperature for 20 min. Cells were then washed with PBS and permeabilized for 10 min using 0.1% triton X-100 in PBS. Following PBS rinsing, the cells were blocked for 90 min at room temperature with blocking buffer. The buffer was aspirated and the cells were treated overnight at 4° C. with primary antibody (pSer239-VASP, rabbit polyclonal Ab) diluted 1:500 in blocking buffer. Following three washes with 0.05% Tween 20, the cells were treated for 1 h at room temperature with a fluorescent labeled secondary antibody (IRDye® 800CW Donkey Anti-Rabbit IgG) diluted 1:2500 in blocking buffer with 0.05% Tween 20. Following two washes with PBS, infrared fluorescence was measured using an Odyssey Infrared Imaging System. The activity of a test compound was determined as the pEC50 value which is the concentration able to increase by 50% (vs. Bmax) the phospho-VASP fluorescent signal. Front. Pharmacol., 5 Jul. 2012|doi: 10.3389/fphar.2012.00128, Volume 3 July, 2012, Article number 128.

intraocular pressure [2] = test: IOP in Japanese White rabbits after topical administration; type: in vivo; settings: 50 microliter to right eye, FIG. 1
Description: (§1) In Japanese White rabbits, IOP was measured at baseline (immediately preceding administration of test article) and at predetermined time points (1, 2, 3, 5, 7, 9, 24 hours; additional time points were 30 and 48 hours after intravitreal administration) after topical (FIG. 1) or intravitreal (FIG. 2) administration of ophthalmic formulations containing drug, vehicle or saline using applanation tonometry. Test articles were topically administered in a 50 microliter volume to the right eye, saline in a 50 microliter volume to the contralateral, left eye. For intravitreal administration, dosing volumes were 20 microliters instead. For each animal, the difference between right eye IOP and left eye IOP was calculated as delta IOP.

intraocular pressure [3] = test: IOP in Japanese White rabbits after intravitreal administration; type: in vivo; settings: FIG. 2
Description: as §1

intraocular pressure [4] = test: IOP in normal C57BL/6J mice after topical administration; type: in vivo; settings: 4 microliter to right eye, compared with latanoprost, FIG. 3
Description: Additionally, the effect on IOP in normal mice was also assessed. In C57BL/6J mice, IOP was measured at baseline (immediately preceding administration of test article) and at predetermined time points (1, 2, 3, 4, 6, 8, 24 hours) after topical administration of ophthalmic formulations containing drug, vehicle or saline using a TonoLab. Test articles were administered in a 4 microliter volume to the right eye, saline in a 4 microliter volume to the contralateral, left eye. For each animal, the difference between right eye IOP and left eye IOP was calculated as delta IOP.

Row | EC50 [1] [nM] | Compound | further results
1 | 5.89 | Cc1cc(OCCCn2ccc(C(F)(F)F)n2)ccc1CCc1ccccc1-c1cccc(-n2ncc(C(=O)O)c2C(F)(F)F)n1 [Example 3, 1-(6-(2-(2-methyl-4-(3-(3-(trifluoromethyl)-1H-pyrazol-1-yl)propoxy)phenethyl)phenyl)pyridin-2-yl)-5-(trifluoromethyl)-1H-pyrazole-4-carboxylic acid] | 
2 | 151 | COCCCOc1ccc(COc2ccccc2-c2cccc(-n3ncc(C(=O)O)c3C(F)(F)F)n2)c(F)c1 [Example 6, 1-(6-(2-((2-fluoro-4-(3-methoxypropoxy)benzyl)oxy)phenyl)pyridin-2-yl)-5-(trifluoromethyl)-1H-pyrazole-4-carboxylic acid] | 
3 | > 631 | Cc1cc(OCCCC#N)ccc1COc1ccccc1-c1cccc(-n2ncc(C(=O)O)c2C(F)(F)F)n1 [Example 9, 1-(6-(2-((4-(3-cyanopropoxy)-2-methylbenzyl)oxy)phenyl)pyridin-2-yl)-5-(trifluoromethyl)-1H-pyrazole-4-carboxylic acid] | 
4 | 91.2 | COCCCOc1ccc(COc2ccccc2-c2cccc(-n3ncc(C(=O)O)c3C(F)(F)F)n2)c(C)c1 [Example 10, 1-(6-(2-((4-(3-methoxypropoxy)-2-methylbenzyl)oxy)phenyl)pyridin-2-yl)-5-(trifluoromethyl)-1H-pyrazole-4-carboxylic acid] | 

Row | Compound | EC50 [1] [nM] | further results
5 | Cc1cc(OCCCC(F)(F)F)ccc1CCc1ccccc1-c1cccc(-n2ncc(C(=O)O)c2C(F)(F)F)n1 [Example 1, 1-(6-(2-(2-methyl-4-(4,4,4-trifluorobutoxy)phenethyl)phenyl)pyridin-2-yl)-5-(trifluoromethyl)-1H-pyrazole-4-carboxylic acid] | 14.5 | effect on IOP (delta IOP) (intraocular pressure [2]): dose-dependently and effectively decreased IOP; effect on IOP (delta IOP) (intraocular pressure [3]; 20 microliters to right eye): long-lasting and effective reduction in IOP; duration of IOP reduction (intraocular pressure [3]): at least 48 hours; effect on IOP (delta IOP) (intraocular pressure [4]): lowered IOP with efficacy similar to latanoprost, but without the initial hypertensive spike
6 | O=C(O)c1cnn(-c2cccc(-c3ccccc3OCc3ccc(OCCCC(F)(F)F)cc3F)n2)c1C(F)(F)F [Example 5, 1-(6-(2-((2-fluoro-4-(4,4,4-trifluorobutoxy)benzyl)oxy)phenyl)pyridin-2-yl)-5-(trifluoromethyl)-1H-pyrazole-4-carboxylic acid] | 60.3 | 
7 | Cc1cc(OCCCC(F)(F)F)ccc1COc1ccccc1-c1cccc(-n2ncc(C(=O)O)c2C(F)(F)F)n1 [Example 11, 1-(6-(2-((2-methyl-4-(4,4,4-trifluorobutoxy)benzyl)oxy)phenyl)pyridin-2-yl)-5-(trifluoromethyl)-1H-pyrazole-4-carboxylic acid] | 102 | 
